# Results: US20080241289A1, “PREPARATION AND UTILITY OF NON-NUCLEOSIDE REVERSE TRANSCRIPTASE INHIBITORS” (AUSPEX PHARMACEUTICALS, INC., priority 2007, published 2008)
# Tested on: BN Rats
# Experiment: Incidence of skin rash in BN rats, time course study
# Format: in vivo
# Protocol: The protocol was modeled after that published previously (Shenton et al, Chem. Res. Toxicol. 2005, 18, 1799-1813, and Popovic et al, Chem. Res. Toxicol. 2006, 19, 1205-1214). After a 1-week acclimation period, the rats (n=3 per group) were either treated with the suspension vehicle (1% Tween® 20), or Nevirapine (NVP) (150 mg/kg/day) in suspension, or compounds of Formula I (dNVP) (150 mg/kg) in suspension. Animals were monitored for development of skin rash, and body weight. At the endpoint of the experiment, rats were humanely euthanized using carbon dioxide and exsanguinations.
# At day 18, all animals in all three groups were euthanized as the experiment was deemed to have reached its ethical endpoint where no additional dosing was considered appropriate.
smiles,measurement,setting,value
"Cc1ccnc2c1NC(=O)c1cccnc1N2C1CC1 [NVP, 11-Cyclopropyl-5,11-dihydro-4-methyl-6H-dipyrido[3,2,-b:2′,3′-e][1,4]-diazepin-2-one]","other visible signs (ears, eyes, feet, tail)","150 mg/kg/day in suspension, at approximately the two-week point","distinctly red ears, edematous eyes, purple feet, and a mottled tail"
same,behaviour / general health after dosing,"150 mg/kg/day in suspension, over entire course of the experiment (to day 18)",inactivity and a lack of responsiveness for about three hours after each dosing
same,"overall toxicity, NVP compared with compounds of Formula I","150 mg/kg/day in suspension, under controlled conditions",substantially more toxic than compounds of Formula I
same,development of skin lesions (skin rash),"n=3 per group, 150 mg/kg/day in suspension (1% Tween 20), observed to day 18","all NVP-treated animals displayed lesions, particularly around the dorsal area of the neck"
